This note sets out measurements from patent publication US9452997B2, “Piperidine and piperazine derivatives as autotaxin inhibitors” (Merck Patent GmbH, priority 2009, dated 2016).

The target of this assay is T1, Recombinant autotaxin (Homo sapiens, UniProt Q13822).
T1 construct: made in house; host or cells: Hi5 insect cells (baculovirus)
The assay is described as follows: Autotaxin assay (Amplex Red, LPC substrate). In kind it is biochemical. The settings on record: recombinant autotaxin, LPC substrate, Amplex Red detection; values given as upper bounds. The essentials:
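Recombinant autotaxin (Hi5 baculovirus, 16 ng) pre-incubated with compound 30 min at 22° C, then reacted with 75 μM egg LPC for 90 min at 37° C. Choline released is coupled to H2O2 and Amplex Red fluorescence (ex 485/em 612 nm). IC50 from ten 1:3 dilutions from 30 μM, duplicates, normalised to 500 μM C14 LPA.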
One may read the IC50 as the concentration at which inhibition is half-maximal. Consider `O=C(OCc1ccc(OC(F)F)cc1)N1CCN(C2CCN(C(=O)c3ccc4[nH]nnc4c3)CC2)CC1` [Compound 167, 4-[1-(1H-Benzotriazole-5-carbonyl)-piperidin-4-yl]-piperazine-1-carboxylic acid 4-difluoromethoxy-benzyl ester], for which the IC50 is less than 1 µM.

`O=C(OCc1ccc(SC(F)F)cc1)N1CCN(C2CCN(C(=O)c3ccc4[nH]nnc4c3)CC2)CC1` [Compound 168, 4-[1-(1H-Benzotriazole-5-carbonyl)-piperidin-4-yl]-piperazine-1-carboxylic acid 4-difluoromethylsulfanyl-benzyl ester]: the concentration for half-maximal inhibition (IC50) is less than 1 µM. With `C[C@@H](OC(=O)N1CCN(C2CCN(C(=O)c3ccc4[nH]nnc4c3)CC2)CC1)c1cc(C(F)(F)F)cc(C(F)(F)F)c1` [Compound 169, 4-[1-(1H-Benzotriazole-5-carbonyl)-piperidin-4-yl]-piperazine-1-carboxylic acid (R)-1-(3,5-bis-trifluoromethyl-phenyl)-ethyl ester] the figure was less than 1 µM; with `Cc1ccc(C(OC(=O)N2CCN(C3CCN(C(=O)c4ccc5[nH]nnc5c4)CC3)CC2)(C(F)(F)F)C(F)(F)F)cc1` [Compound 170, 4-[1-(1H-Benzotriazole-5-carbonyl)-piperidin-4-yl]-piperazine-1-carboxylic acid 2,2,2-trifluoro-1-p-tolyl-1-trifluoromethyl-ethyl ester], less than 10 µM.

With `C[C@H](OC(=O)N1CCN(C2CCN(C(=O)c3ccc4[nH]nnc4c3)CC2)CC1)c1cc(C(F)(F)F)cc(C(F)(F)F)c1` [Compound 171, 4-[1-(1H-Benzotriazole-5-carbonyl)-piperidin-4-yl]-piperazine-1-carboxylic acid (S)-1-(3,5-bis-trifluoromethyl-phenyl)-ethyl ester], the IC50 is less than 10 µM. To `CC(OC(=O)N1CCN(C2CCN(C(=O)c3ccc4[nH]nnc4c3)CC2)CC1)c1cc(C(F)(F)F)cc(C(F)(F)F)c1` (centres unmarked) [Compound 172, 4-[1-(1H-Benzotriazole-5-carbonyl)-piperidin-4-yl]-piperazine-1-carboxylic acid 1-(3,5-bis-trifluoromethyl-phenyl)-ethyl ester] belongs less than 10 µM; to `Cc1oc(-c2ccccc2)cc1COC(=O)N1CCN(C2CCN(C(=O)c3ccc4[nH]nnc4c3)CC2)CC1` [Compound 173, 4-[1-(1H-Benzotriazole-5-carbonyl)-piperidin-4-yl]-piperazine-1-carboxylic acid 2-methyl-5-phenyl-furan-3-ylmethyl ester], less than 10 µM. With `Cc1nc(-c2ccc(Cl)cc2)sc1COC(=O)N1CCN(C2CCN(C(=O)c3ccc4[nH]nnc4c3)CC2)CC1` [Compound 174, 4-[1-(1H-Benzotriazole-5-carbonyl)-piperidin-4-yl]-piperazine-1-carboxylic acid 2-(4-chloro-phenyl)-4-methyl-thiazol-5-ylmethyl ester] the figure was less than 10 µM; with `O=C(OCC1CN(c2ccc(Cl)cc2)C(=O)O1)N1CCN(C2CCN(C(=O)c3ccc4[nH]nnc4c3)CC2)CC1` (centres unmarked) [Compound 175, 4-[1-(1H-Benzotriazole-5-carbonyl)-piperidin-4-yl]-piperazine-1-carboxylic acid 3-(4-chloro-phenyl)-2-oxo-oxazolidin-5-ylmethyl ester], less than 10 µM; with `Cc1ccc(C(C)CC(=O)N2CCN(C3CCN(C(=O)c4ccc5[nH]nnc5c4)CC3)CC2)cc1C` (centres unmarked) [Compound 176, 1-{4-[1-(1H-Benzotriazole-5-carbonyl)-piperidin-4-yl]-piperazin-1-yl}-3-(3,4-dimethyl-phenyl)-butan-1-one], less than 30 µM. To `CC(CC(=O)N1CCN(C2CCN(C(=O)c3ccc4[nH]nnc4c3)CC2)CC1)c1ccc(C(F)(F)F)cc1` (centres unmarked) [Compound 177, 1-{4-[1-(1H-Benzotriazole-5-carbonyl)-piperidin-4-yl]-piperazin-1-yl}-3-(4-trifluoromethyl-phenyl)-butan-1-one] belongs less than 10 µM.
